Laboratory results: US11197862B2, “Methods of preventing toxicity of platinum drugs” (XOMICS BIOPHARMA, INC., priority 2015, dated 2021)
Read-outs that look alike come from different tables or passages of the source.

Experiments:
[1] = cited from earlier work; for Plasma protein binding (%): published data
OCT2 [2] = target: T1, OCT2 (Homo sapiens, UniProt O15244); settings: OCT2-mediated uptake; ASP+ 5 μM in HBSS; from Kido Y et al. J Med Chem 2011; cited from earlier work
T1 sequence (O15244 1-555): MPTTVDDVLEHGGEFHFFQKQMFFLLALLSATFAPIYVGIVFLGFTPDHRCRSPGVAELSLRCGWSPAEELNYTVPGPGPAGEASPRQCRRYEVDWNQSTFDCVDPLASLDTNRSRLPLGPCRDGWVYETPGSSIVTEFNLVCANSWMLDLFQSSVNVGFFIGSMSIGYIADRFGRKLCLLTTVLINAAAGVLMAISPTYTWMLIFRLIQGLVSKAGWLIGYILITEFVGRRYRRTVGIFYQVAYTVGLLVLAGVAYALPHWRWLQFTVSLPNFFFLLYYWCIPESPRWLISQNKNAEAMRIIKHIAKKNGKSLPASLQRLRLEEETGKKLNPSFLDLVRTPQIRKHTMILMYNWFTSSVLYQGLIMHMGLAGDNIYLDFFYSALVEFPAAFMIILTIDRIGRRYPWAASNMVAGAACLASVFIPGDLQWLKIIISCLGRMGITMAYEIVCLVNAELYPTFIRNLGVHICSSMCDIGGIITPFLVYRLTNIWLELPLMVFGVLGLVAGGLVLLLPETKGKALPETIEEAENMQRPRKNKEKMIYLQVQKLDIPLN

OCT2 [3] = target: T1, OCT2; assay: Inhibition of OCT2-mediated metformin uptake in transfected MDCK-II cells
[4] = Published clinical pharmacokinetic data; settings: from published Cmax and protein binding
OCT3 = target: T2, OCT3 (Homo sapiens, UniProt O75751); assay: Inhibition of OCT3-mediated oxaliplatin transport in human serum or 4% BSA HBSS
T2 sequence (O75751 1-556): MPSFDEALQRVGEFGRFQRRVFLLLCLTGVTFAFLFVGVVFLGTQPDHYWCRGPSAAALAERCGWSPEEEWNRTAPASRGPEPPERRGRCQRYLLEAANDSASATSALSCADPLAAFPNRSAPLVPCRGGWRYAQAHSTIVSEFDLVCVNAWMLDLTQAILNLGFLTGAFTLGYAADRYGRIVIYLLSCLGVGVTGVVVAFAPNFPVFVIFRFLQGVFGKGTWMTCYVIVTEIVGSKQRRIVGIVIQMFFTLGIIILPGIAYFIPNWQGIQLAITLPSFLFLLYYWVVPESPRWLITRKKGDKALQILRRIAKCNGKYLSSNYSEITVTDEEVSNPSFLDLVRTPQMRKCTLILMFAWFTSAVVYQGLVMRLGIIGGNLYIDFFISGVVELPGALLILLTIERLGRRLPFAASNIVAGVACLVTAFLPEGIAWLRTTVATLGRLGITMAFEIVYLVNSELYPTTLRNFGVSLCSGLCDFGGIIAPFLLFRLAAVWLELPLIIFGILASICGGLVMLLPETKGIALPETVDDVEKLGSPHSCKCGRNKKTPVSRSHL

OCT2 [5] = target: T1, OCT2; assay: Inhibition of OCT2-mediated oxaliplatin transport in 100% human serum or HBSS containing 4% BSA (IC50,app); settings: for fold higher potency for OCT2 over OCT1, OCT3, MATE1 and MATE2K in transporting oxaliplatin: from IC50,app of Table 4
OCT2 [6] = target: T1, OCT2; assay: Inhibition of OCT2-mediated oxaliplatin uptake in transfected MDCK-II cells (protein-free HBSS); settings: for inhibition at 30 min, 5 μM / inhibition at 30 min, 50 μM / potency estimated from few doses at 30 min: human
Text: Fully confluent MDCK cell monolayers were transfected with either cDNA plasmids encoding the human transporter to be tested or a GFP control. […] The cells were then washed with ice-cold PBS and lysed with 50:50 acetonitrile:H2O. Intracellular content of the substrate was quantified by LC/MS/MS or a MicroBeta radiometric plate reader.

OCT1 = target: T3, OCT1 (Homo sapiens, UniProt O15245); assay: Inhibition of OCT1-mediated oxaliplatin transport in human serum or 4% BSA HBSS
T3 sequence (O15245 1-554): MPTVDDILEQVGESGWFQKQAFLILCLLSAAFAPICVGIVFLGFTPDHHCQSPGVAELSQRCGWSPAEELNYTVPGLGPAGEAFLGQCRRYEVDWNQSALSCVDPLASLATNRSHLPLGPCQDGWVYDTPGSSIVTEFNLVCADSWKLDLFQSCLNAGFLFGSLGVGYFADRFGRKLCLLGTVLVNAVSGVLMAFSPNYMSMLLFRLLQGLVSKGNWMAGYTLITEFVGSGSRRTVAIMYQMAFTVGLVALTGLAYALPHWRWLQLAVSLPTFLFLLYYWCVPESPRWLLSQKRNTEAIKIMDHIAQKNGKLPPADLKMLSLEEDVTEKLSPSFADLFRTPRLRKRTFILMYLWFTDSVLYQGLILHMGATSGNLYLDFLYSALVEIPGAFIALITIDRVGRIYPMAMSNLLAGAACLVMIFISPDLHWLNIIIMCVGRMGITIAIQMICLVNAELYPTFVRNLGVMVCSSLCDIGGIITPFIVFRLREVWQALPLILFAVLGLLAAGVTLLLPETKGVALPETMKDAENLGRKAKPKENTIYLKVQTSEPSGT

OCT2 [7] = target: T1, OCT2; assay: Cmax,u/IC50 or Cmax/IC50,app ratio for clinically relevant inhibition of OCT2-mediated oxaliplatin uptake; parameters: expressed in transfected cells; host or cells: MDCK-II (Madin-Darby canine kidney type II)
Text: The FDA has published guidance in predicting if a drug is likely to be a transporter inhibitor in clinics by using data attained in in vitro models. Cmax,u denotes the maximum free, unbound plasma concentration of a drug. […] Thus, characteristics of the in vitro model may be used to predict in vivo effectiveness.

[8] = read-out: Plasma peak total concentration Cmax, published clinical pharmacokinetic data
[9] = IC50,app (μM), apparent inhibition constant in 100% human serum or HBSS containing 4% BSA, OCT2-mediated oxaliplatin uptake
[10] = OCT2 IC50, app (μM), 100% human serum or HBSS containing 4% BSA, 20 μM or 100 μM oxaliplatin
[11] = MDCK-II cells transfected with human OCT2, probe oxaliplatin 10 μM
[12] = 600 mg dosed IV bolus (FIG. 1B)

Compound	Plasma protein binding (%) [1]	Cmax [1, 8]	Inhibition % @ 20 μM (substrate ASP+) (OCT2 [2])	IC50 (OCT2 [3])	Plasma peak unbound concentration Cmax,u [4]	IC50 (OCT3)	IC50 (OCT2 [5]; [9])	IC50 (OCT2 [5]; [10])	fold higher potency for OCT2 over OCT1, OCT3, MATE1 and MATE2K in transporting oxaliplatin (OCT2 [5])	IC50 (OCT2 [6])	inhibition at 30 min, 5 μM (OCT2 [6])	inhibition at 30 min, 50 μM (OCT2 [6])	IC50 (OCT1)	also measured
COc1cc(OC)c(C(=O)CCCN2CCCC2)c(OC)c1 [Buflomedil, 4-pyrrolidin-1-yl-1-(2,4,6-trimethoxyphenyl)butan-1-one]	70%	6.8 µM	104%	5.7 ± 0.8 µM	2.04 µM	28 ± 11.4 µM	1.45 µM	1.4 ± 0.2 µM	at least 20 fold	0.78 µM	87%	105%	34.6 ± 7.6 µM	Mean Cmax ([1]; 300 mg po, bid): 2100 ng/mL; Mean T1/2 ([1]; 300 mg po, bid): 3.4 h; Mean Cmax ([1]; 600 mg slow-release, po, qd): 2200 ng/mL; Mean T1/2 ([1]; 600 mg slow-release, po, qd): >10 h; average clearance ([1]; Group A patients): 292 mL/min; average clearance ([1]; Group B patients, seniors (average age 82 yrs) with impaired renal clearance): 99.5 mL/min; Cmax ([1]; read-out: Mean Cmax, 300 mg po, bid): 6.8 µM; Cmax ([1]; read-out: Mean Cmax, 600 mg slow-release, po, qd): 7.2 µM; Cmax/IC50, app ratio (OCT2 [7]; 300 mg po, bid): 4.69; Cmax/IC50, app ratio (OCT2 [7]; 600 mg slow-release, po, qd): 4.97
C[C@@H]1CCO[C@H]2Cn3cc(C(=O)NCc4ccc(F)cc4F)c(=O)c(O)c3C(=O)N12 [Dolutegravir]	99.5%	10.9 µM	–	0.54 ± 0.09 µM	0.05 µM	> 100 µM	3.37 µM	3.4 ± 1 µM	–	0.2 µM	–	–	> 100 µM	Mean Cmax ([1]; 50 mg po qd, day 10): 6160 ng/mL; Mean T1/2 ([1]; 50 mg po qd, day 10): ~15 h; Mean Cmax ([1]; 50 mg po qd, single dose): 4560 ng/mL; Mean T1/2 ([1]; 50 mg po qd, single dose): 14.2 h; Cmax ([1]; read-out: Mean Cmax, 50 mg po qd, day 10): 14.7 µM; Cmax ([1]; read-out: Mean Cmax, 50 mg po qd, single dose): 10.9 µM; inhibition at 30 min, 5 μM (OCT2 [6]; [11]): 83%; inhibition at 30 min, 50 μM (OCT2 [6]; [11]): 97%; potency estimated from few doses at 30 min (OCT2 [6]; [11]): 0.2 µM; Cmax/IC50, app ratio (OCT2 [7]; 50 mg po qd, day 10): 4.36; Cmax/IC50, app ratio (OCT2 [7]; 50 mg po qd, single dose): 3.23
Clc1ccc(COC(Cn2ccnc2)c2ccc(Cl)cc2Cl)c(Cl)c1 (stereo not shown) [Miconazole]	92%	14.9 µM	91%	142 µM	–	49.2 ± 22.6 µM	3.3 µM	3.3 ± 0.6 µM	at least 2 fold	1.55 µM	39%	97%	8.4 ± 1.5 µM	decrease of plasma concentration at 3 hour [1, 12]: nearly five-fold decrease at 3 hour; plasma half-time (initial phase) [1, 12]: 0.4 h; Mean Cmax ([1]; 800 mg IV): 5000 ng/mL; Mean T1/2 (hour), distribution phase ([1]; 800 mg IV): 0.4 (dis- hour; Mean T1/2 (hour), terminal phase ([1]; 800 mg IV): phase), 8.9 hour; Cmax ([1]; read-out: Mean Cmax, 800 mg IV): 12 µM; fold less potent in inhibiting OCT2-mediated metformin transport than ASP+ and oxaliplatin transport (OCT2 [3]; comparison of Table 1 potencies): approximately 70 fold; potency estimated from few doses at 30 min (OCT2 [6]; IC50 (μM) (substrate Oxaliplatin)): 1.55 µM; Cmax/IC50, app ratio (OCT2 [7]; 800 mg IV): 3.64
